The results in this text go back to PMC11206988, “Study on the Effect of Pharmaceutical Excipient PEG400 on the Pharmacokinetics of Baicalin in Cells Based on MRP2, MRP3, and BCRP Efflux Transporters” (Pharmaceutics, 2024).

Read-outs that look alike come from different tables or passages of the source.

For orientation: Papp A→B means the apparent permeability from the apical to the basolateral side of a cell layer. In general, Papp B→A refers to the apparent permeability from the basolateral to the apical side of a cell layer.

Data set [1] has as its system MDCK II-WT, MDCK II-MRP2, MDCK II-BCRP and MDCK II-MRP3 cells. Briefly: MTT cell proliferation assay. Type of data set: cell-based. The conditions noted are these: experimentally selected concentrations. The text has this: The effect of PEG400 on baicalin transport was investigated in MDCKII-WT, MDCKII-MRP2, MDCK II-BCRP, and MDCK II-MRP3 cell monolayer models. First, an MTT cell proliferation assay was used to evaluate the effects of baicalin as well as PEG400 concentration on […]. […] The results of the transporter experiments are shown in Figure 5 and Table 2, which indicate that the exocytosis ratio of MDCKII-WT cells in the control group for the transport of the substrate baicalin was 2.58 ± 0.27. This implies that the transport of baicalin through the cell membrane is mediated by a transporter. For the MDCK-WT cell model, the exocytosis ratios of baicalin decreased to 1.94 ± 0.27, 1.53 ± 0.14, and 1.19 ± 0.12, respectively, in response to low, medium, and high concentrations of PEG400. […] Consistent results were obtained in the MDCK II-MRP2 and MDCK II-BCRP cell models, where the percentage of baicalin efflux was reduced, from 2.45 ± 0.04 and 3.01 ± 0.05 to 2.22 ± 0.17, 1.08 ± 0.09, and 0.8 ± 0.04, respectively, and 1.59 ± 0.06, 1.02 ± 0.04, and 0.8 ± 0.02 in a concentration-dependent decrease. The results of the efflux ratio of baicalin in MDCK-WT, MDCK-MRP2, and MDCK-BCRP cell monolayers by 0.25%, 0.5%, and 1% PEG400 are shown in Figure 5f.
Figure 4 The effect diagram of cell vitality. (a,b) The effects of different concentrations of baicalin and PEG400 on the survival of MDCK II-WT cells. […]
(Tetrazolium assays rely on reduction of a dye to a coloured formazan, in cell work by metabolically active cells.)

The nature of data set [2]: Transport of baicalin across MDCK II-WT cell monolayer (transwell). The data set is classed as in vitro ADME. The conditions noted are these: dog, MDCK, pH 7.4, MDCK II-WT; for efflux ratio at 120 min, 100 μM: read-out: ER. The procedure: (§1) The cells were inoculated at a density of 0.5 mL (1 × 10^5) in the upper layer of the transwell plate (AP side), and the culture was changed daily after the lower layer was added with 1.5 mL of complete medium without cells every other day. After 5–7 days of growth, the supernatant was aspirated and discarded, and the cell monolayer was rinsed twice with 37 °C Hank’s Balanced Salt Solution (HBSS, pH 7.4). The electrical resistance of the cell monolayer compartments was measured with a resistivity meter (TEER), and the integrity of the cell monolayer was monitored using TEER. The differentiation of MDCK II-WT, MDCK II-MRP2, MDCK II-MRP3, and MDCK II-BCRP cells was examined by determining sodium fluorescein permeability prior to transit experiments. This was done in order to determine the integrity of the cell monolayer. When the TEER value of the cell monolayer was greater than 150 Ω·cm^2 and the MDCK II-MRP2, MDCK II-MRP3, and MDCK II-BCRP sodium fluorescein permeability was less than 0.5 × 10^−6 cm/s or the MDCK II-WT sodium fluorescein permeability was less than 1 × 10^−6 cm/s, the cell monolayer was considered intact and suitable for transit experiments. TEER = (TEERcell monolayer − TEERblank) × Aarea(1) wherein TEERcell monolayer is the resistance of the cell monolayer read directly from the Millicell ERS-2 resistivity meter, and TEERblank is the resistance read by inserting a blank HBSS (no cells) only. Aarea is the surface area of the filter membrane, 1.12 cm^2.
(§2) In this experiment, a 100 μM baicalin solution (dissolved in HBSS) containing different concentrations of PEG400 (0.25%, 0.5%, and 1%) was employed as the test solution, while a solution without PEG400 was used as the blank test solution, which was added to AP or BL chambers, respectively. In the top to basolateral (AP-BL) transport experiment, the 0.5 mL sample added to the apical side (AP) was utilized as the supply room, and the HBSS preheated to 1.5 mL 37 °C was added to the basolateral (BL) as the receiving chamber. Conversely, in the basal low lateral to top (BL-AP) transport experiment, the 1.5 mL sample (dissolved in HBSS) was added to the BL side as the supply room, and the 0.5 mL preheated HBSS was added as a receiving room on the AP side. Once the aforementioned steps had been completed, the transwell was placed on a 37 °C thermostatic oscillator at 60 r/min, and 100 μL was withdrawn from the receiving cell or 10 μL from the supply chamber at 30, 60, 90, and 120 min, depending on the experiment, and replenished with an equal volume of blank 37 °C preheated HBSS. The samples were utilized to precipitate the proteins with 100 μL of methanol containing the internal standard for 10 min. After centrifugation at 16,000× g for 15 min at 4 °C, the supernatant was collected in a volume of 70 μL. The contents were determined by UPLC-MS/MS, and apparent permeability coefficients (PAPP) and efflux ratios (ER) were calculated.
(§3) The formulas for calculating Papp and ER of monolayer and monolayer are as follows:(2) Papp=dQ/dt/AC0 wherein dQ/dt (ng/mL·s) is the transit rate (ng/mL·s); A is the membrane area (1.12 cm^2); and C0 (ng/mL) is the initial concentration of the sample in the supply chamber. ER = PappBL-AP/PappAP-BL (3) wherein PappBL-AP is the apparent permeability coefficient when the BL is added to the sample, and PappAP-BL is the apparent permeability coefficient when the sample is added at the top side (AP).

The subject of another data set is MDCK II-WT cells. The data set is described as above. Type of data set: in vitro ADME. The conditions noted are these: MDCK II-WT. The procedure:
as §1, §2, §3

Turning to `O=C(O)[C@H]1O[C@@H](Oc2cc3oc(-c4ccccc4)cc(=O)c3c(O)c2O)[C@H](O)[C@@H](O)[C@@H]1O` [BG, Baicalein-7-O-β-D-glucuronide], the “effect on cell proliferation (MTT)” value in data set [1] is listed as “no significant effect on the proliferation”. The Papp A→B at 120 min, 100 μM in data set [2] (100 μM BG + 0.25% PEG400) amounted to 4.57 ± 1.08 ×10⁻⁶ cm/s; in data set [2] (100 μM BG + 0.5% PEG400) it was 5.24 ± 0.53 ×10⁻⁶ cm/s; in data set [2] (100 μM BG + 1% PEG400), 5.47 ± 0.94 ×10⁻⁶ cm/s; in data set [2] (100 μM BG alone), 3.18 ± 0.07 ×10⁻⁶ cm/s. For the same compound, the Papp B→A at 120 min, 100 μM in data set [2] (100 μM BG + 0.25% PEG400) was 7.94 ± 0.99 ×10⁻⁶ cm/s; in data set [2] (100 μM BG + 0.5% PEG400), 6.78 ± 1.19 ×10⁻⁶ cm/s; in data set [2] (100 μM BG + 1% PEG400), 3.61 ± 0.26 ×10⁻⁶ cm/s; in data set [2] (100 μM BG alone) it was 11.6 ± 1 ×10⁻⁶ cm/s. Moreover, the efflux ratio at 120 min, 100 μM amounted to 1.94 ± 0.27 in data set [2] (100 μM BG + 0.25% PEG400), 1.53 ± 0.14 in data set [2] (100 μM BG + 0.5% PEG400), 1.19 ± 0.12 in data set [2] (100 μM BG + 1% PEG400) and 2.58 ± 0.27 in data set [2] (100 μM BG alone). Besides, the ER is on record as 1.8 ± 0.44 with MDCK II-WT cells (100 μM BG + 0.25% PEG400), 1.29 ± 0.11 in the data set with MDCK II-WT cells (100 μM BG + 0.5% PEG400), 0.67 ± 0.07 with MDCK II-WT cells (100 μM BG + 1% PEG400) and 3.64 ± 0.28 in the data set with MDCK II-WT cells (100 μM BG alone).
